# Experimental data reported in patent US20250346582A1, “SPLEEN TYROSINE KINASE INHIBITORS AND METHODS OF USE THEREOF” (THE BOARD OF TRUSTEES OF THE UNIVERSITY OF ILLINOIS, priority 2022, published 2025).
# Key:
# [1] = system: phosphorylation of ERK1/2 and STAT3/5; test: Western blot of phosphorylation in HL60 cells; type: cell-based; settings: RAS-mutated HL60 cells; 5 μM
# Procedure: FIGS. 3A-3D show the inhibition of the signaling activity and proliferation of HL-60 AML cells by Syk-cSH2 inhibitors. […] DMSO was used as a negative control and GAPDH as a gel loading control. […] (c) Inhibition of phosphorylation of Syk, STAT3/5 and ERK1/2 in patient-derived primary AML cells by WC36. Cells were cultured overnight in the presence of CD34+ cytokine supplement. DMSO was used as a negative control. Representative data from one (Patient 1) of four patient samples are shown here. (d) Inhibition of the proliferation of four patient AML cells by WC36 measured by the colony growth assay. The number of colonies after WC36 treatment was normalized to the enumerated colonies after DMSO treatment.
# Cells were seeded at a density of 3.0×10^5 cells/well prior to incubation with inhibitors. Cells were incubated with 1-5 μM of Syk inhibitors overnight and stimulated with different antibodies: IgG2 for AML cells, IgM for Raji B cells, and OKT3 (Biolegend) for Jurkat cells. The cells were lysed in NP40 lysis buffer (50 mM Tris, pH 7.5, 150 mM NaCl, 1 mM EDTA, 1% NP40, 10% glycerol, 10 mM NaF, 10 mM Na3VO4, and the protease inhibitor cocktail) at 4° C. and the cell debris was removed by centrifugation. Samples were analyzed by SDS-PAGE. Proteins were separated and transferred to Immobilon-P polyvinylidene difluoride membrane (Millipore Sigma). The membrane was blocked with 5% bovine serum albumin for 1 h and incubated overnight at 4° C. with various antibodies (1:1000 dilution for all antibodies). After the unbound antibodies were removed by washing with 0.1% Tris buffer saline with 0.1% Tween20, the membranes were incubated with the horseradish peroxidase secondary antibody (1:5000 dilution) for 1 h at room temperature. The membranes were washed three more times with 0.1% Tris buffer saline with 0.1% Tween20 to remove the unbound horseradish peroxidase secondary antibody before imaging. The chemiluminescence intensity of protein bands in the gel was analyzed and documented by the Azure 500Q Imaging System.
# [2] = system: MV4-11 cells; test: XTT cell proliferation assay, MV4-11 cells; type: cell-based
# Procedure: (§1) MV4-11 or HL-60 cells were seeded into a clear-bottom 96-well plate containing varying concentrations of inhibitors in the optimal growth media described above and the mixtures were incubated for 16 h. Cells were then treated with a mixture of XTT-labeling reagents and the electron coupling reagents according to the manufacturer's protocol (Roche). After 4 h, the absorbance values at 475 nm and at 660 nm were simultaneously measured by Synergy™ Neo spectrofluorometer at 25° C. Cells with the growth media was used for background correction.
# [3] = system: patient AML cells; test: Colony growth assay of patient-derived AML cells; type: cell-based; settings: primary AML cells from 4 patients
# Procedure: (§2) Primary samples were obtained from an existing HEMBANK at UIC under an IRB approved research protocol (protocol #2021-0723). Cells were processed and treated with inhibitors as reported previously^75. For primary AML samples, mononuclear cells isolated by Ficoll density centrifugation were utilized. mononuclear cells were treated in culture at a density of 0.5×10^6/ml in StemSpan with CD34 expansion supplement (Stemcell Technologies) for 24 h and then harvested for immunoblotting assays. In parallel 2×10^4 cells were plated in triplicate for each treatment condition in Methoccult H4434 (Stem Cell Technologies) in the presence of drug. At days 12-14, colonies were manually enumerated under light microscopy and normalized to DMSO control for each individual sample due to interpatient variability in colony forming activity. Normalized colony forming units for pooled treated and untreated samples (n=4) were compared using unpaired 2-tailed t test. p<0.05 was considered statistically significant.
# [4] = system: Raji B cells; test: Cell viability assay (CellTiter-Glo), Raji cells; type: cell-based; settings: 0.5-5 μM
# Procedure: All cell viability assays were conducted in a white, flat-bottom, 96-well tissue culture plate (Corning). The Raji cells were seeded at a density of 3.0×10^5 cells/well 24 h prior to the incubation with the inhibitor. Varying concentrations of WC36 (or DMSO) was then added to each well and the plates were incubated at 37° C. and at 5% CO2 for 72 h. Cell viability was quantified with the CellTiter-Glo reagent. Growth media were removed by aspiration and replaced with 100 μl fresh media and 100 μl CellTiter-Glo reagent. The plates were then gently shaken for 2 min and incubated at 25 C.° for additional 8 min. The luminescence was measured using Synergy™ Neo spectrofluorometer at 25 C.°. The luminescence value at each WC36 concentration was normalized against that without WC36. DMSO with the same volume as the WC36 solution was used as negative controls.
# [5] = biological target: T1, Syk-cSH2 E164D (Homo sapiens, UniProt P43405, E164D); test: Fluorescence quenching vesicle binding assay, Syk-cSH2 E164D mutant; settings: up to 5 μM; POPC/POPS/PIP3/dabsyl-PE vesicles
# T1 construct: polyhistidine (N); made in house; host or cells: Escherichia coli BL21 (DE3) pLysS
# Procedure: The membrane-binding assay is based on fluorescence quenching of EGFP fused to a SH2 domain by a dark quencher containing lipid, dabsyl-PE, incorporated in lipid vesicles. The plate reader assay was performed using the Synergy™ Neo spectrofluorometer at 25° C. Nontreated black polystyrene 96-well plates (Corning) were used. Protein (10-50 nM) with the increasing concentration of vesicles with a given lipid composition in 20 mM Tris buffer, pH 7.4, containing 0.16 M NaCl was added to each row of wells and the EGFP fluorescence emission at 516 nm was measured with excitation set at 485 nm. Z′ factor for the assay system was determined as described^74. Imax and IC50 values of inhibitors were determined using the equation, I=Imax/(1+IC50/[I]) where I and [I] indicate % inhibition and inhibitor concentration, respectively. The average and standard deviation values were obtained from triplicate determinations.
# [6] = system: Syk activation; test: Immunoblotting of patient-derived primary AML cells; type: cell-based; settings: primary AML cells from 4 patients refractory or relapsed
# Procedure: as §2
# [7] = system: HL60 cells; test: XTT cell proliferation assay, HL60 cells; type: cell-based
# Procedure: as §1
# [8] = system: entospletinib-resistant MV4-11 cells; test: XTT cell proliferation assay, entospletinib-resistant MV4-11 cells; type: cell-based; settings: Homo sapiens, read-out: IC50, inhibition of proliferation (XTT assay)
# Procedure: Then the concentration was maintained at 5 μM.
# as §1
inhibition of membrane binding of Syk-cSH2 E164D [5],IC50 [8] [nM],SMILES,inhibition of phosphorylation of ERK1/2 and STAT3/5 [1],inhibition of cell proliferation (XTT assay) [2],suppression of colony forming activity [3],effect on cell viability [4],inhibition of Syk activation [6],inhibition of proliferation (XTT assay) [7]
,,"[N-]=[N+]=C(C(=O)OC1CCCCC1)C(Nc1ncccn1)c1ccc[nH]1 (racemic) [WC38, Cyclohexyl 2-diazo-3-(pyrimidin-2-ylamino)-3-(1H-pyrrol-2-yl)propanoate]",less active then WC36,,,,,
,,"[N-]=[N+]=C(C(=O)OC1CCCCC1)C(Nc1ncccn1)c1ccco1 (racemic) [WC35, Cyclohexyl 2-diazo-3-(furan-2-yl)-3-(pyrimidin-2-ylamino)propanoate]",less active then WC36,modestly more active than WC38 and entospletinib,,,,
not inhibited,500 ± 10,"[N-]=[N+]=C(C(=O)OC1CCCCC1)C(Nc1ncccn1)c1c[nH]c2ccccc12 (racemic) [WC36, Cyclohexyl 2-diazo-3-(1H-indol-3-yl)-3-(pyrimidin-2-ylamino)propanoate]",potent against phosphorylation of ERK1/2 and STAT3,modestly more active than WC38 and entospletinib,statistically significant suppression of colony forming activity,minimal effect on cell viability,significant inhibition of Syk activation,potently suppressed the proliferation of HL60 cells
